Experimental findings from patent US8436024B2, “2-pyridone compounds” (Astrazeneca AB, priority 2009, dated 2013) are described below.

Molecules are shown by their SMILES.

Data set [1] addresses T1, Human Neutrophil Elastase (HNE) (Homo sapiens, UniProt P08246).
T1 sequence (P08246 30-267): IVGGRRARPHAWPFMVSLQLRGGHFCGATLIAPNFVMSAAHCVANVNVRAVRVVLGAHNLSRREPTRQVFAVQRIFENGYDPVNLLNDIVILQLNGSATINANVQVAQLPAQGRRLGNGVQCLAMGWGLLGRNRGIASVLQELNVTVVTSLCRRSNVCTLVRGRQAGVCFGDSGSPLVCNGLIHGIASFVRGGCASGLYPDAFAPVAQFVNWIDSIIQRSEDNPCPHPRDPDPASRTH
The data set is described as follows: Human Neutrophil Elastase Quenched-FRET Assay. Conditions: geomean of measured IC50 values; HNE 0.17 nM, substrate MeOSuc-AAPV-AMC 100 μM, 90 min at room temperature; read-out: Inhibition of Human Neutrophil Elastase IC50. The class given is biochemical. The procedure: Human Neutrophil Elastase Quenched-FRET Assay The assay uses Human Neutrophil Elastase (HNE) purified from serum (Calbiochem art. 324681; Ref Baugh, R. J. et al., 1976, Biochemistry. 15, 836-841). HNE was stored in 50 mM sodium acetate (NaOAc), 500 mM sodium chloride (NaCl), pH 5.5 with added 50% glycerol at −20° C. The protease substrate used was Elastase Substrate V Fluorogenic, MeOSuc-AAPV-AMC (Calbiochem art. 324740; Ref Castillo, M. J. et al., 1979, Anal. Biochem. 99, 53-64). The substrate was stored in dimethyl sulphoxide (DMSO) at −20° C. The assay additions were as follows: Test compounds and controls were added to black 384-well flat-bottom plates (Greiner 781076), 0.2 μL in 100% DMSO, followed by 10 μL HNE in assay buffer with 0.01% Triton (trade mark) X-100 detergent. The assay buffer constitution was: 100 mM Tris(hydroxymethyl)aminomethane (TRIS) (pH 7.5) and 500 mM NaCl. The enzyme and the compounds were incubated at room temperature for 15 minutes. Then 10 μL substrate in assay buffer was added. The assay was incubated for 90 minutes at room temperature. The concentrations of HNE enzyme and substrate during the incubation were 0.17 nM and 100 μM, respectively. The assay was then stopped by adding 20 μl stop solution (140 mM acetic acid, 200 mM sodium monochloroacetate, 60 mM sodium acetate, pH 4.3). Fluorescence was measured on a Wallac EnVision 2102 Multilabel Reader instrument at settings: Excitation 380 nm, Emission 460 nm. IC50 values were determined using Xlfit curve fitting using model 203. […] Specimen results are shown in the following Table in which the IC50 value represents the geomean of the IC50 values measured for a particular compound and “n” refers to the number of times the compound was tested: […]

The nature of data set [2]: Humidity interaction (hygroscopicity determination) by Gravimetrical Vapour Sorption. The class given is physicochemical. Conditions: for hygroscopicity: relative change in weight between 0% RH and 80% RH, second cycle, benzenesulfonate. The procedure: Run time was 6.2 minutes; post time was 2.3 min; and detection was at 235 nm. • (v) In general, the course of reactions was followed by TLC and reaction times are given for illustration only. • (vi) Yields are given for illustration only and are not necessarily those which can be obtained by diligent process development; preparations were repeated if more material was required. • (vii) Chemical symbols have their usual meanings; SI units and symbols are used. • (viii) Solvent ratios are given in volume: volume (v/v) terms. • (ix) Mass spectra (MS) (loop) were recorded on a Micromass Platform LC equipped with HP 1100 detector; unless otherwise stated the mass ion quoted is (MH^+). • (x) X-ray Powder Diffraction patterns were collected on a PANalytical X′Pert PRO MPD theta-theta system, equipped with a focusing beam Johansson monochromator and an X′Celerator detector, using CuKα1 radiation (1.5406 Å, 45 kV, 40 mA). The diffraction pattern was collected between 2 and 40 °2θ in a continuous scan mode. The scan speed was 0.86°/min. with an increment of 0.016°. Samples were mounted on single silicon crystal wafer mounts. • (xi) Humidity Interaction (hygroscopicity determination): The gravimetric responses of test samples to changes in humidity were investigated using a TGA 5000 (TA Instruments) Gravimetrical Vapour Sorption (GVS). The relative humidity (RH) was raised in steps of 10% to 90% RH and lowered back to 0% RH in two cycles. Each level of RH was held until the equilibrium condition (sample weight change<0.005 wt % per 10 minutes) was reached. 3-5 mg of the test sample was placed in the cup and evaluated. The hygroscopicity was calculated as the relative change in weight of the sample between 0% RH at the start of the second cycle and 80% RH during the increase of humidity in the second cycle. […]

On to `Cc1c(-c2ccnn2-c2ccc(C#N)cc2)cc(C(=O)NCCC[N+](C)(C)C)c(=O)n1-c1cccc(C(F)(F)F)c1` [Example 7, 3-(5-(1-(4-cyanophenyl)-1H-pyrazol-5-yl)-6-methyl-2-oxo-1-(3-(trifluoromethyl)phenyl)-1,2-dihydropyridine-3-carboxamido)-N,N,N-trimethylpropan-1-aminium bromide], for which, in data set [1], the half-inhibitory concentration (IC50) – broadly, the midpoint of a concentration-inhibition curve – was found to be 0.57 nM. Consider `Cc1c(-c2ccnn2-c2ccc(C#N)cc2)cc(C(=O)NCCCC[N+](C)(C)C)c(=O)n1-c1cccc(C(F)(F)F)c1` [Example 4, 4-[({5-[1-(4-cyanophenyl)-1H-pyrazol-5-yl]-6-methyl-2-oxo-1-[3-(trifluoromethyl)phenyl]-1,2-dihydropyridin-3-yl}carbonyl)amino]-N,N,N-trimethylbutan-1-aminium iodide], for which the 50% inhibitory concentration (IC50) in data set [1] stood at 0.934 nM. Regarding `Cc1c(-c2ccnn2-c2ccc(C#N)cc2)cc(C(=O)NCC[N+](C)(C)C)c(=O)n1-c1cccc(C(F)(F)F)c1` [Example 3, 2-[({5-[1-(4-cyanophenyl)-1H-pyrazol-5-yl]-6-methyl-2-oxo-1-[3-(trifluoromethyl)phenyl]-1,2-dihydropyridin-3-yl}carbonyl)amino]-N,N,N-trimethylethanaminium acetate], the IC50 in data set [1] amounted to 1.05 nM.

For `Cc1c(-c2ccnn2-c2ccc(C#N)cc2)cc(C(=O)NCC[N+]2(C)CCCC2)c(=O)n1-c1cccc(C(F)(F)F)c1` [Example 1, 1-{2-[({5-[1-(4-cyanophenyl)-1H-pyrazol-5-yl]-6-methyl-2-oxo-1-[3-(trifluoromethyl)phenyl]-1,2-dihydropyridin-3-yl}carbonyl)amino]ethyl}-1-methylpyrrolidinium acetate], the IC50 in data set [1] stood at 0.949 nM. Same read-out and setting: then `Cc1c(-c2ccnn2-c2ccc(C#N)cc2)cc(C(=O)NCCC[N+]2(C)CCCC2)c(=O)n1-c1cccc(C(F)(F)F)c1` [Example 5, 1-{3-[({5-[1-(4-cyanophenyl)-1H-pyrazol-5-yl]-6-methyl-2-oxo-1-[3-(trifluoromethyl)phenyl]-1,2-dihydropyridin-3-yl}carbonyl)amino]propyl}-1-methylpyrrolidinium iodide], with 0.971 nM.

As for `Cc1c(-c2ccnn2-c2ccc(C#N)cc2)cc(C(=O)NCCC[N+](C)(C)C)c(=O)n1-c1cccc(C(F)(F)F)c1.O=S(=O)([O-])c1ccccc1` [Example 10, 3-(5-(1-(4-cyanophenyl)-1H-pyrazol-5-yl)-6-methyl-2-oxo-1-(3-(trifluoromethyl)phenyl)-1,2-dihydropyridine-3-carboxamido)-N,N,N-trimethylpropan-1-aminium benzenesulfonate], the “hygroscopicity (in words)” value in data set [2] (description of the crystalline modification) is recorded as “low hygroscopicity”. The hygroscopicity in data set [2] (listed as Form B) is 0.4 % (w/w). Regarding `Cc1c(-c2ccnn2-c2ccc(C#N)cc2)nc(C(=O)NCCC[N+](C)(C)C)c(=O)n1-c1cccc(C(F)(F)F)c1` [Example 6, 3-[({6-[1-(4-cyanophenyl)-1H-pyrazol-5-yl]-5-methyl-3-oxo-4-[3-(trifluoromethyl)phenyl]-3,4-dihydropyrazin-2-yl}carbonyl)amino]-N,N,N-trimethylpropan-1-aminium iodide], in data set [1], the IC50 worked out at 3.48 nM. For `Cc1c(-c2ccnn2-c2ccc(C#N)cc2)cc(C(=O)NCCC[N+](C)(C)C)c(=O)n1-c1cccc(C(F)(F)F)c1.O=S(=O)([O-])c1ccccc1` [Example 9, 3-(5-(1-(4-cyanophenyl)-1H-pyrazol-5-yl)-6-methyl-2-oxo-1-(3-(trifluoromethyl)phenyl)-1,2-dihydropyridine-3-carboxamido)-N,N,N-trimethylpropan-1-aminium benzenesulfonate], the hygroscopicity in data set [2] (listed as Form A) was 0.8 % (w/w). With `Cc1c(-c2ccnn2-c2ccc(C#N)cc2)cc(C(=O)NCCC[N+](C)(C)C)c(=O)n1-c1cccc(C(F)(F)F)c1` [Example 9a, 3-(5-(1-(4-cyanophenyl)-1H-pyrazol-5-yl)-6-methyl-2-oxo-1-(3-(trifluoromethyl)phenyl)-1,2-dihydropyridine-3-carboxamido)-N,N,N-trimethylpropan-1-aminium benzenesulfonate], the half-inhibitory concentration (IC50) in data set [1] was found to be 1.1 nM. `Cc1c(-c2ccnn2-c2ccc(C#N)cc2)cc(C(=O)NCCCC[N+]2(C)CCCC2)c(=O)n1-c1cccc(C(F)(F)F)c1` [Example 2, 1-{-4-[({5-[1-(4-cyanophenyl)-1H-pyrazol-5-yl]-6-methyl-2-oxo-1-[3-(trifluoromethyl)phenyl]-1,2-dihydropyridin-3-yl}carbonyl)amino]butyl}-1-methylpyrrolidinium acetate]: the IC50 in data set [1] is 0.771 nM.
